Measurements reported in ChEMBL document CHEMBL1201862, “PubChem BioAssay data set” (2004).
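Five concentrations, 48 hours, 96-well plates. Here, GI50 denotes the concentration required for 50% inhibition of growth.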 Active and inactive are the calls of the source. Rule as the data show it: active = GI50 up to about 1.1 µM and inactive = higher.

Columns and labels:
Assay in all cases: NCI-60 cell line screen, 48 h
[1] = system: SK-MEL-5
[2] = system: HOP-92
[3] = system: A549
[4] = system: SNB-78
[5] = system: UO-31
[6] = system: KM12
[7] = system: HT-29
[8] = system: RPMI-8226
[9] = system: 786-0
[10] = system: SK-MEL-28
[11] = system: SN12C
[12] = system: OVCAR-4
[13] = system: SNB-19
[14] = system: EKVX
[15] = system: SF-295
[16] = system: HCC 2998
[17] = system: HCT-116
[18] = system: HOP-62
[19] = system: RXF 393
[20] = system: HCT-15
[21] = system: U-251
[22] = system: IGROV-1
[23] = system: SK-OV-3
[24] = system: SF-539
[25] = system: SW-620
[26] = system: UACC-257
[27] = system: ACHN
[28] = system: A498
[29] = system: SF-268
[30] = system: DLD-1
[31] = system: LOX IMVI
[32] = system: CAKI-1
[33] = system: M14
[34] = system: NCI-H460
[35] = system: DMS-114
[36] = system: M19-MEL
[37] = system: LXFL 529
[38] = system: NCI-H23
[39] = system: SR
[40] = system: OVCAR-8
[41] = system: NCI-H226
[42] = system: NCI-H522
[43] = system: SK-MEL-2
[44] = system: UACC-62
[45] = system: COLO 205
[46] = system: OVCAR-3
[47] = system: Malme-3M
[48] = system: OVCAR-5
[49] = system: DU-145
[50] = system: TK-10
[51] = system: MDA-MB-231
[52] = system: HL-60
[53] = system: Hs-578T
[54] = system: MOLT-4
[55] = system: T47D
[56] = system: SNB-75
[57] = system: BT-549
[58] = system: K562
[59] = system: NCI/ADR-RES
[60] = system: CCRF-CEM
[61] = system: MDA-MB-435
[62] = system: PC-3
[63] = system: MCF7
[64] = system: MDA-N

Cc1cccc(CC(C)(C)C)c1NC(=O)C(=O)C(C(=O)c1ccc2ccccc2c1)C1OC(=O)c2ccccc21 (configuration not stated)
GI50 [1]: 13.1 µM (inactive)
GI50 [2]: 1.14 µM (inactive)
GI50 [3]: 12.4 µM (inactive)
GI50 [4]: 11.5 µM (inactive)
GI50 [5]: 16 µM (inactive)
GI50 [6]: 14.5 µM (inactive)
GI50 [7]: 20.2 µM (inactive)
GI50 [8]: 10.1 µM (inactive)
GI50 [9]: 7.23 µM (inactive)
GI50 [10]: 5.58 µM (inactive)
GI50 [11]: 15.8 µM (inactive)
GI50 [12]: 41.5 µM (inactive)
GI50 [13]: 10.6 µM (inactive)
GI50 [14]: 20.7 µM (inactive)
GI50 [15]: 4.55 µM (inactive)
GI50 [16]: 12.1 µM (inactive)
GI50 [17]: 6.73 µM (inactive)
GI50 [18]: 15.4 µM (inactive)
GI50 [19]: 3.4 µM (inactive)
GI50 [20]: 15.3 µM
GI50 [21]: 4.79 µM (inactive)
GI50 [22]: 16.7 µM (inactive)
GI50 [23]: 26.5 µM (inactive)
GI50 [24]: 2.95 µM (inactive)
GI50 [25]: 6.78 µM (inactive)
GI50 [26]: 12 µM (inactive)
GI50 [27]: 18 µM (inactive)
GI50 [28]: 13.2 µM (inactive)
GI50 [29]: 8.53 µM (inactive)
GI50 [30]: 14 µM (inactive)
GI50 [31]: 11.5 µM (inactive)
GI50 [32]: 19.2 µM (inactive)
GI50 [33]: 27.2 µM (inactive)
GI50 [34]: 4.13 µM (inactive)
GI50 [35]: 10.4 µM (inactive)
GI50 [36]: 14.6 µM (inactive)
GI50 [37]: 7.01 µM (inactive)
GI50 [38]: 6.35 µM (inactive)
GI50 [39]: 3.72 µM (inactive)
GI50 [40]: 6.58 µM (inactive)
GI50 [41]: 2.4 µM (inactive)
GI50 [42]: 9.53 µM (inactive)
GI50 [43]: 14.4 µM (inactive)
GI50 [44]: 7.52 µM (inactive)
GI50 [45]: 15.4 µM (inactive)
GI50 [46]: 58.5 µM (inactive)
GI50 [47]: 10.8 µM (inactive)
GI50 [48]: 15.2 µM (inactive)

CC(C)NC(=O)OCc1c(COC(=O)NC(C)C)c(-c2ccc[n+](COC(=O)Cc3ccccc3)c2)n2c1CCC2
GI50 [1]: 33.4 µM (inactive)
GI50 [2]: 16.4 µM (inactive)
GI50 [3]: 44.8 µM (inactive)
GI50 [5]: 27.5 µM (inactive)
GI50 [6]: > 100 µM (inactive)
GI50 [7]: 26.1 µM (inactive)
GI50 [8]: 23.6 µM (inactive)
GI50 [9]: 17.3 µM (inactive)
GI50 [10]: > 100 µM (inactive)
GI50 [11]: 30.2 µM (inactive)
GI50 [49]: 25.4 µM (inactive)
GI50 [12]: 25 µM (inactive)
GI50 [13]: 94.8 µM (inactive)
GI50 [14]: 85.5 µM (inactive)
GI50 [15]: 35 µM (inactive)
GI50 [16]: > 100 µM (inactive)
GI50 [50]: 45 µM (inactive)
GI50 [17]: 30.4 µM (inactive)
GI50 [18]: 31.7 µM (inactive)
GI50 [19]: 23 µM (inactive)
GI50 [20]: 55.5 µM
GI50 [21]: 29.1 µM (inactive)
GI50 [22]: 75.3 µM (inactive)
GI50 [51]: 26.2 µM (inactive)
GI50 [23]: 29.2 µM (inactive)
GI50 [24]: 34.5 µM (inactive)
GI50 [25]: 22.5 µM (inactive)
GI50 [26]: 58.9 µM (inactive)
GI50 [27]: 13.2 µM (inactive)
GI50 [28]: 22.5 µM (inactive)
GI50 [29]: 26.9 µM (inactive)
GI50 [52]: > 100 µM (inactive)
GI50 [31]: 24 µM (inactive)
GI50 [53]: 48.1 µM (inactive)
GI50 [54]: 6.76 µM (inactive)
GI50 [32]: 9.48 µM (inactive)
GI50 [55]: 28.7 µM (inactive)
GI50 [33]: 40.2 µM (inactive)
GI50 [56]: 24.3 µM (inactive)
GI50 [57]: 24.1 µM (inactive)
GI50 [58]: 71 µM (inactive)
GI50 [34]: 19.8 µM (inactive)
GI50 [59]: 36.6 µM (inactive)
GI50 [60]: 54.7 µM (inactive)
GI50 [61]: 71.1 µM (inactive)
GI50 [38]: 21.3 µM (inactive)
GI50 [39]: 3.15 µM (inactive)
GI50 [62]: 34 µM (inactive)
GI50 [40]: 37.8 µM (inactive)
GI50 [41]: 77.3 µM (inactive)
GI50 [63]: 25.1 µM (inactive)
GI50 [64]: 80 µM (inactive)
GI50 [42]: 19 µM (inactive)
GI50 [43]: 28.1 µM (inactive)
GI50 [44]: 17 µM (inactive)
GI50 [45]: 41.7 µM (inactive)
GI50 [46]: 41 µM (inactive)
GI50 [47]: 49 µM (inactive)
GI50 [48]: 36.1 µM (inactive)
